Measurements from publication PMC9033183 (RSC Advances, 2021).
Several values for one entry are separate records, joined by “and”; a condition that tells them apart may be missing. Identical values can stand only once. Entries after “also recorded” stand apart in the source; their conditions may differ.

Columns and labels:
[1] = target: aldehyde reductase (ALR1) (Bos taurus, UniProt Q3ZCJ2); assay: Aldehyde reductase; assay type: biochemical, calf; conditions: for IC50: ALR1 IC50(μM) ± SEM, enzyme partially purified from calf kidneys, triplicate
aldose reductase (ALR2) = aldose reductase (ALR2) (Bos taurus, UniProt P16116); assay: Aldose reductase; assay type: biochemical, calf; conditions: for selectivity for ALR2 over ALR1, result in words: ALR2 IC50 compared with ALR1 percent inhibition

aldehyde reductase (ALR1), sequence (Q3ZCJ2 whole entry): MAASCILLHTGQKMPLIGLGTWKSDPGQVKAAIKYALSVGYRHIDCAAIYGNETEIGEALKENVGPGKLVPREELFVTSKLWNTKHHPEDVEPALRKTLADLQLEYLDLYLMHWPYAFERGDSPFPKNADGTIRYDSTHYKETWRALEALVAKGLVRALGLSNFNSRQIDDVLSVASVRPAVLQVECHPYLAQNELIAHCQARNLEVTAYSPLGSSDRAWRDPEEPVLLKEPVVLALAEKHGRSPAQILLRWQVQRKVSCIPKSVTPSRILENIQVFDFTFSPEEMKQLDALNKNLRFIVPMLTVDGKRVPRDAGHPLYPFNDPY

Row | SMILES | ALR1 inhibitory activity, result in words [1] | IC50 [1] | ALR2 inhibitory activity, result in words (aldose reductase (ALR2)) | selectivity for ALR2 over ALR1, result in words (aldose reductase (ALR2))
1 | CC(=N/N=c1\scc(-c2ccc(Br)cc2)n1-c1ccccc1C)C12CC3CC(CC(C3)C1)C2 [Compound 6c, (2Z)-2-((1-(adamantan-1-yl)ethylidene)hydrazono)-4-(4-bromophenyl)-3-(o-tolyl)-2,3-dihydrothiazole] | active inhibitors | 4.07 ± 2.35 µM | active inhibitors | 
2 | C/C(=N/N=c1/scc(-c2ccc(Cl)cc2)n1-c1ccccc1)c1ccc2c(c1)OCCO2 [Compound 7g, (Z)-4-(4-chlorophenyl)-2-((E)-(1-(2,3-dihydrobenzo[b][1,4]dioxin-6-yl)ethylidene) hydrazono)-3-phenyl-2,3-dihydrothiazole] | active inhibitors | 3.14 ± 0.41 µM | active inhibitors | 
3 | COc1cccc(-n2c(-c3ccc([N+](=O)[O-])cc3)cs/c2=N/N=C\c2c[nH]c3ccccc23)c1 [Compound 8f, (Z)-2-((E)-((1H-indol-3-yl)methylene)hydrazono)-3-(3-methoxyphenyl)-4-(4-nitrophenyl)-2,3-dihydrothiazole] |  |  |  | selective ALR2 inhibitor
4 | CC(=N/N=c1\scc(-c2ccc(Cl)cc2)n1Cc1ccccc1)C12CC3CC(CC(C3)C1)C2 [Compound 6e, (2Z)-2-((1-(adamantan-1-yl)ethylidene)hydrazono)-3-benzyl-4-(4-chlorophenyl)-2,3-dihydrothiazole] |  |  |  | selective ALR2 inhibitors; also recorded: good inhibitory activity and selectively against ALR2
5 | O=[N+]([O-])c1ccc(-c2cs/c(=N/N=C\c3c[nH]c4ccccc34)n2Cc2ccccc2)cc1 [Compound 8e, (Z)-2-((E)-((1H-indol-3-yl)methylene)hydrazono)-3-benzyl-4-(4-nitrophenyl)-2,3-dihydrothiazole] | active inhibitors | 2.94 ± 1.34 µM | active inhibitors | 
6 | COc1cccc(-n2c(-c3ccc([N+](=O)[O-])cc3)cs/c2=N/N=C(/C)c2ccc3c(c2)NC(=O)CO3)c1 [Compound 5f, 6-((E)-1-((Z)-(3-(3-methoxyphenyl)-4-(4-nitrophenyl)thiazol-2(3H)-ylidene) hydrazono)ethyl)-2H-benzo[b][1,4]oxazin-3(4H)-one] | active inhibitors | 3.13 µM and 3.24 µM | active inhibitors | 
7 | COc1cccc(-n2c(-c3ccc(Cl)cc3)cs/c2=N/N=C(/C)c2ccc3c(c2)NC(=O)CO3)c1 [Compound 5j, 6-((E)-1-((Z)-(4-(4-chlorophenyl)-3-(3-methoxyphenyl)thiazol-2(3H)-ylidene) hydrazono)ethyl)-2H-benzo[b][1,4]oxazin-3(4H)-one] | weak activity |  | weak activity | 
8 | C/C(=N/N=c1/scc(-c2ccc(Br)cc2)n1-c1ccccc1)c1ccc2c(c1)OCCO2 [Compound 7a, (Z)-4-(4-bromophenyl)-2-((E)-(1-(2,3-dihydrobenzo[b][1,4]dioxin-6-yl)ethylidene) hydrazono)-3-phenyl-2,3-dihydrothiazole] |  |  |  | selective ALR2 inhibitors
9 | CC(=N/N=c1\scc(-c2ccc(Cl)cc2)n1-c1c(C)cccc1C)C12CC3CC(CC(C3)C1)C2 [Compound 6f, (2Z)-2-((1-(adamantan-1-yl)ethylidene)hydrazono)-4-(4-chlorophenyl)-3-(2,6-dimethylphenyl)-2,3-dihydrothiazole] |  |  |  | selective ALR2 inhibitors; also recorded: good inhibitory activity and selectively against ALR2
10 | CC(=N/N=c1\scc(-c2ccc(Br)cc2)n1-c1cccc2ccccc12)C12CC3CC(CC(C3)C1)C2 [Compound 6b, (2Z)-2-((1-(adamantan-1-yl)ethylidene)hydrazono)-4-(4-bromophenyl)-3-(naphthalen-1-yl)-2,3-dihydrothiazole] | active inhibitors | 4.93 ± 1.86 µM | active inhibitors | 
11 | CC(=N/N=c1\scc(-c2ccc(Br)cc2)n1-c1c(C)cccc1C)C12CC3CC(CC(C3)C1)C2 [Compound 6d, (2Z)-2-((1-(adamantan-1-yl)ethylidene)hydrazono)-4-(4-bromophenyl)-3-(2,6-dimethylphenyl)-2,3-dihydrothiazole] |  |  |  | selective ALR2 inhibitors; also recorded: good inhibitory activity and selectively against ALR2
12 | C/C(=N/N=c1/scc(-c2ccc(Cl)cc2)n1Cc1ccccc1)c1ccc2c(c1)OCCO2 [Compound 7i, (Z)-3-benzyl-4-(4-chlorophenyl)-2-((E)-(1-(2,3-dihydrobenzo[b][1,4]dioxin-6-yl)ethylidene)hydrazono)-2,3-dihydrothiazole] | active inhibitors | 2.2 ± 0.92 µM | active inhibitors | 
13 | CC(=N/N=c1\scc(-c2ccc(Br)cc2)n1-c1ccccc1)C12CC3CC(CC(C3)C1)C2 [Compound 6a, (2Z)-2-((1-(adamantan-1-yl)ethylidene)hydrazono)-4-(4-bromophenyl)-3-phenyl-2,3-dihydrothiazole] | active inhibitors | 3.29 ± 1.47 µM | active inhibitors | 
14 | C/C(=N/N=c1/scc(-c2ccc(Cl)cc2)n1-c1ccc(F)cc1)c1ccc2c(c1)OCCO2 [Compound 7h, (Z)-4-(4-chlorophenyl)-2-((E)-(1-(2,3-dihydrobenzo[b][1,4]dioxin-6-yl)ethylidene) hydrazono)-3-(4-fluorophenyl)-2,3-dihydrothiazole] | active inhibitors | 2.94 ± 1.73 µM | active inhibitors | 
15 | C/C(=N/N=c1/scc(-c2ccc(Br)cc2)n1-c1c(C)cccc1C)c1ccc2c(c1)OCCO2 [Compound 7c, (Z)-4-(4-bromophenyl)-2-((E)-(1-(2,3-dihydrobenzo[b][1,4]dioxin-6-yl)ethylidene) hydrazono)-3-(2,6-dimethylphenyl)-2,3-dihydrothiazole] |  |  |  | selective ALR2 inhibitors
16 | COc1cccc(-n2c(-c3ccc(Br)cc3)cs/c2=N/N=C(/C)c2ccc3c(c2)NC(=O)CO3)c1 [Compound 5b, 6-((E)-1-((Z)-(4-(4-bromophenyl)-3-(3-methoxyphenyl)thiazol-2(3H)-ylidene) hydrazono)ethyl)-2H-benzo[b][1,4]oxazin-3(4H)-one] | weak activity |  | weak activity | 
17 | C/C(=N/N=c1/scc(-c2ccc(Br)cc2)n1Cc1ccccc1)c1ccc2c(c1)OCCO2 [Compound 7b, (Z)-3-benzyl-4-(4-bromophenyl)-2-((E)-(1-(2,3-dihydrobenzo[b][1,4]dioxin-6-yl)ethylidene)hydrazono)-2,3-dihydrothiazole] |  |  |  | selective ALR2 inhibitors; also recorded: excellent selectivity; also recorded: considerably selective activity against ARL2; also recorded: significantly selective
